Results from US9387263B2, “RbAp48 transgenic mice for drug discovery in age-related memory decline” (THE TRUSTEES OF COLUMBIA UNIVERSITY IN THE CITY OF NEW YORK, priority 2011, dated 2016).

System: RbAp48 mRNA expression in hippocampus
Assay: RbAp48 transcript in situ hybridization in adult hippocampus after injection of kainic acid (synaptic stimulation)
Format: in vivo, mouse
Details: wild type mice
Procedure: FIG. 14: RbAp48 transcript distribution in the adult hippocampus of wild type mice in either control conditions (injection of saline) of after injection of kainic acid (synaptic stimulation). Coronal cryosections were hybridized with radio-labelled oligonucleotides specific for RbAp48. […] This upregulation of RbAp48 lasted for four hours (8 hr to 12 hr time points).
RNA In Situ Hybridizations: RNA in situ hybridizations were performed on fresh frozen adult brain slices using 40-45 base anti-sense oligonucleotides^37. The oligonucleotides used for the detection of RbAp48-DN-Flag and RbAp48 transcripts can be found in supplemental table 3.
Treatment with Kainic Acid Kainic acid (Sigma) was injected intraperitoneally as previously described^42
Because RbAp48 regulates histone acetylation, it was explored whether RbAp48-DN affects the steady state levels of histone acetylation in the hippocampal formation using immunohistochemistry and image quantification analysis to measure histone acetylation. The initial focus was on the DG. […] To test for spatial specificity, the CA1 subregion was examined and no significant reduction in histone acetylation (FIGS. 12c & 12d) was found. As with behavior and fMRI, the effect of RbAp48-DN on H2B and H4 acetylation in the adult DG was reversed when its expression was turned off (mice on dox; FIGS. 12c & 12d).

With `C=C(C)[C@H]1CN[C@H](C(=O)O)[C@H]1CC(=O)O` [kainic acid] the “Duration of upregulation of RbAp48” value (dentate gyrus, 8 hr to 12 hr time points after kainic acid) was “four” and the “Expression of RbAp48 (transcript distribution in adult hippocampus)” value (intraperitoneal kainic acid vs saline, eight hours after application, radio-labelled oligonucleotide in situ hybridization) was “upregulated specifically in the dentate gyrus”.
